Source: ChEMBL document CHEMBL5291721, “A preclinical secondary pharmacology resource illuminates target-adverse drug reaction associations of marketed drugs” (Nat Commun, 2023)

What was measured:
[1] = biological target: T1, Alpha-2A adrenergic receptor (Homo sapiens, UniProt P08913); format: functional, cell-based
T1 sequence (P08913 whole entry): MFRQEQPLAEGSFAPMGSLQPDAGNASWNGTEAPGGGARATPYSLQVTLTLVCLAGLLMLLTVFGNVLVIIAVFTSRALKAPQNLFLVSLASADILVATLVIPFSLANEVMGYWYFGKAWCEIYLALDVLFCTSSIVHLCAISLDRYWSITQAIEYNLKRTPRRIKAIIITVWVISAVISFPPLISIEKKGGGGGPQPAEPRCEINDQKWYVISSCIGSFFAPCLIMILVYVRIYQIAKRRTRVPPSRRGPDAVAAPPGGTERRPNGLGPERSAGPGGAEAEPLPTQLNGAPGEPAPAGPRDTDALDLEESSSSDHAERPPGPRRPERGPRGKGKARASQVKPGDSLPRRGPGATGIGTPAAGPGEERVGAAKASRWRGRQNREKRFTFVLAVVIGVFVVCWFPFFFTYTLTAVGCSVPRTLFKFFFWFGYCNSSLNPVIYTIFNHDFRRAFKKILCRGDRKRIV

[2] = biological target: Beta-1 adrenergic receptor (Homo sapiens, UniProt P08588); format: functional
Vasopressin V1a receptor = Vasopressin V1a receptor (Homo sapiens, UniProt P37288)
B2 bradykinin receptor = biological target: T2, B2 bradykinin receptor (Homo sapiens, UniProt P30411)
T2 sequence (P30411 whole entry): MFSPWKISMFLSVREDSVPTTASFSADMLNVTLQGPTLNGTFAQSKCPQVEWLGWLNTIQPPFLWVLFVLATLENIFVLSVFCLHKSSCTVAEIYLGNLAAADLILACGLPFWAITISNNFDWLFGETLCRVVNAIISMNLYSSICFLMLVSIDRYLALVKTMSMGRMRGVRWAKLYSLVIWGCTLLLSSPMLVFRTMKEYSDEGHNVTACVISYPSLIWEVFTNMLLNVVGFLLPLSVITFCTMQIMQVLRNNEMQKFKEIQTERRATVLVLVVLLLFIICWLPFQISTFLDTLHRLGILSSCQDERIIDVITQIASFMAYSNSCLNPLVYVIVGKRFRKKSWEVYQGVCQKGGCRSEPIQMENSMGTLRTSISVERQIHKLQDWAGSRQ

[3] = biological target: Voltage-dependent L-type calcium channel subunit alpha-1C (Rattus norvegicus, UniProt P22002); format: functional
[4] = biological target: T3, Muscarinic acetylcholine receptor M2 (Homo sapiens, UniProt P08172); format: functional, cell-based
T3 sequence (P08172 whole entry): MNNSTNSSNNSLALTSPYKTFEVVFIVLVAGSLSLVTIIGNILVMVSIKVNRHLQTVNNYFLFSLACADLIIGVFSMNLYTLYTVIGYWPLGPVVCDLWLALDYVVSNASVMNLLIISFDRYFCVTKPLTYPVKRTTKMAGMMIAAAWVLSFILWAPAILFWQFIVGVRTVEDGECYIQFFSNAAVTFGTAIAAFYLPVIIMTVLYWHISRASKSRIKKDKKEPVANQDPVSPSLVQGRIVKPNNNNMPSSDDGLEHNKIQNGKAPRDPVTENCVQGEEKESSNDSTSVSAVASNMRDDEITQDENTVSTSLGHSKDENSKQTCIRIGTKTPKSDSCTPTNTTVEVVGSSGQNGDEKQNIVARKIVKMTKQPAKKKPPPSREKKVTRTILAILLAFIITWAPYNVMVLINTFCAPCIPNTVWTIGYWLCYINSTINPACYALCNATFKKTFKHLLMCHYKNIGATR

Cannabinoid receptor 1 = Cannabinoid receptor 1 (Homo sapiens, UniProt P21554); format: functional, cell-based
[5] = biological target: Gamma-aminobutyric acid receptor subunit alpha-1 (Rattus norvegicus, UniProt P62813); format: functional
Histamine H1 receptor = Histamine H1 receptor (Homo sapiens, UniProt P35367)
[6] = biological target: T4, 5-hydroxytryptamine receptor 1A (Homo sapiens, UniProt P08908); format: functional, cell-based
T4 sequence (P08908 whole entry): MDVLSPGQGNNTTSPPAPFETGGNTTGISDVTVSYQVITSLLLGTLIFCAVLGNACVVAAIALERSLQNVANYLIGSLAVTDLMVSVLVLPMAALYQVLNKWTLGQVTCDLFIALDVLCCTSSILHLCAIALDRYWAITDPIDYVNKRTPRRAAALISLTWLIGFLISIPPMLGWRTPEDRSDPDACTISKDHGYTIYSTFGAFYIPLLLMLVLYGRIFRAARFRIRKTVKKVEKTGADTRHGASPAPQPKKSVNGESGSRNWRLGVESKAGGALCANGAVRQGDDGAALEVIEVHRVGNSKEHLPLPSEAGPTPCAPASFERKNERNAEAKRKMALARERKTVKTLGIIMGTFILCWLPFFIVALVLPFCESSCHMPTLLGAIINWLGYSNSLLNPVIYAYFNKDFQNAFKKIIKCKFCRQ

[7] = biological target: T5, 5-hydroxytryptamine receptor 2B (Homo sapiens, UniProt P41595); format: functional, cell-based
[8] = biological target: T5, 5-hydroxytryptamine receptor 2B; format: functional, cell-based; remark: listed apart in the source
[9] = biological target: 3',5'-cyclic-AMP phosphodiesterase 4D (Homo sapiens, UniProt Q08499); format: functional
Estrogen receptor = biological target: T6, Estrogen receptor (Homo sapiens, UniProt P03372)
T6 sequence (P03372 whole entry): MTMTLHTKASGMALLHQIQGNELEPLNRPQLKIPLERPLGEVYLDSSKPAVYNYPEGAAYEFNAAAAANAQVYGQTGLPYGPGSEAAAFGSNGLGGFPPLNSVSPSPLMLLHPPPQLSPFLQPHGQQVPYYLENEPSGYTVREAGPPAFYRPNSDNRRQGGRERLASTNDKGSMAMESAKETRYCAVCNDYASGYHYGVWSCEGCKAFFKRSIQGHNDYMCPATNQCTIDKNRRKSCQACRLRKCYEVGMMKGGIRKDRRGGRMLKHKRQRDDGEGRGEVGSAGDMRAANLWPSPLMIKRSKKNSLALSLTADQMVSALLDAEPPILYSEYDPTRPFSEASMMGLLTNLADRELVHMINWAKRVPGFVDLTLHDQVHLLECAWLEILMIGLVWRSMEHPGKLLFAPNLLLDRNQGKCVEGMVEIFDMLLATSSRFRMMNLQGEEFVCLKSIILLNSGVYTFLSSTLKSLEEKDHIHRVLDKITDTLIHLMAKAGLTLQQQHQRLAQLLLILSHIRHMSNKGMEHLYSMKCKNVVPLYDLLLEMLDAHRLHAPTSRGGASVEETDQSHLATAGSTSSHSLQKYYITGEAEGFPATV
Note: assay procedure not described here.

Chain of Beta-1 adrenergic receptor (P08588 whole entry): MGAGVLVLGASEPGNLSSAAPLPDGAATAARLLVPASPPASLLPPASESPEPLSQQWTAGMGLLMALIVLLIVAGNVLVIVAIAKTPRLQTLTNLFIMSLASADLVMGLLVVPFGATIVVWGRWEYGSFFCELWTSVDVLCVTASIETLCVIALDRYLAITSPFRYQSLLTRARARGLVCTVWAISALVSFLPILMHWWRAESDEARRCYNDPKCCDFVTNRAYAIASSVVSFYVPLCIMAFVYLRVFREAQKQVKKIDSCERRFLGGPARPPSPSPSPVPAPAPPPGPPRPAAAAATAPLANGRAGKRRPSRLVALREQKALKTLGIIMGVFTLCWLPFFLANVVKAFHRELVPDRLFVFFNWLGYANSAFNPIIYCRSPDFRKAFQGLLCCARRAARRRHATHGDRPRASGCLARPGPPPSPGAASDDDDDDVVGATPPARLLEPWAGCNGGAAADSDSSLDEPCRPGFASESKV
Chain of 3',5'-cyclic-AMP phosphodiesterase 4D (Q08499 whole entry): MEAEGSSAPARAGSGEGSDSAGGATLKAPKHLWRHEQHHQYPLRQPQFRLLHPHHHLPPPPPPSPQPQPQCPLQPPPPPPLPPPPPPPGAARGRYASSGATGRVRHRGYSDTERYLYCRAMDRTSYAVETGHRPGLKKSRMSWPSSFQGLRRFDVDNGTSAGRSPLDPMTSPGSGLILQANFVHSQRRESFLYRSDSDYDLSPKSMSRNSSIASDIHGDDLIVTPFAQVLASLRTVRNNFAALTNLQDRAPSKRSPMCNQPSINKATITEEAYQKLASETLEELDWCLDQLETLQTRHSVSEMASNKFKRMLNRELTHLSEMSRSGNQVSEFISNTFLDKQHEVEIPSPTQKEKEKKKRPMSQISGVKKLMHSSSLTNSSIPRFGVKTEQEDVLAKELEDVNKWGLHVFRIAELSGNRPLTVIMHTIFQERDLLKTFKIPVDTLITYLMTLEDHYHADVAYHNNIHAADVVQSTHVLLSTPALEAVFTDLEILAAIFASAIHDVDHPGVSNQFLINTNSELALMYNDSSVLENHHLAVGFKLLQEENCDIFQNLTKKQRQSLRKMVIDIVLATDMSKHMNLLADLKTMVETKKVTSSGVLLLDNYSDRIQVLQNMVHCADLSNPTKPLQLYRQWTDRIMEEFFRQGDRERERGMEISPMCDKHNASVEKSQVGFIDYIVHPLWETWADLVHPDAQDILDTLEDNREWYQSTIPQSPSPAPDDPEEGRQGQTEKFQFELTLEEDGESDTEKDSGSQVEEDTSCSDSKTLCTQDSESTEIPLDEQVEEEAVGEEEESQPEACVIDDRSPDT
Chain of Gamma-aminobutyric acid receptor subunit alpha-1 (P62813 whole entry): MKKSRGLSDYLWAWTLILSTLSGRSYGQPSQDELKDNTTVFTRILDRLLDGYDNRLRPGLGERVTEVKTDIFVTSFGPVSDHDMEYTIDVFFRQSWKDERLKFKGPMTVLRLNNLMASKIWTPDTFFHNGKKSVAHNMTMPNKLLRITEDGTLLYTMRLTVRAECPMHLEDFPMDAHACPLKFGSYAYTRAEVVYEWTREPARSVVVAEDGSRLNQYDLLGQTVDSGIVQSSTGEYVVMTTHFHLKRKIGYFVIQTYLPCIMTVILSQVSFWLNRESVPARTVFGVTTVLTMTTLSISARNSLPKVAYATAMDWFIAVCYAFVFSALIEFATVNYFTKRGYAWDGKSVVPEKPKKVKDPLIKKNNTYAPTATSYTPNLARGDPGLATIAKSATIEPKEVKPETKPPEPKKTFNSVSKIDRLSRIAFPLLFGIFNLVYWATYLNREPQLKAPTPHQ
Chain of Cannabinoid receptor 1 (P21554 whole entry): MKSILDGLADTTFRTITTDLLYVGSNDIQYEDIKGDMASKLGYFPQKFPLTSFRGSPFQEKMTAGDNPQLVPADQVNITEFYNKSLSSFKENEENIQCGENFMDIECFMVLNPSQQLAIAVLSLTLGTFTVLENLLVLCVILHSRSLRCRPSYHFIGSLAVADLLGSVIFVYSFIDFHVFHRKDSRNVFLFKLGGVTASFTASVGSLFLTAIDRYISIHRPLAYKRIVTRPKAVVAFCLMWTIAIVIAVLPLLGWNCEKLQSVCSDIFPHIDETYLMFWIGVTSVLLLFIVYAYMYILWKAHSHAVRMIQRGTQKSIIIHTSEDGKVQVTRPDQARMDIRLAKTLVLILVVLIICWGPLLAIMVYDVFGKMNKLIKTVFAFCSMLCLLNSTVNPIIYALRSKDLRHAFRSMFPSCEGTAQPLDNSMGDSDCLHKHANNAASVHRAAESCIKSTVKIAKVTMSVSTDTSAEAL
T5 sequence (P41595 whole entry): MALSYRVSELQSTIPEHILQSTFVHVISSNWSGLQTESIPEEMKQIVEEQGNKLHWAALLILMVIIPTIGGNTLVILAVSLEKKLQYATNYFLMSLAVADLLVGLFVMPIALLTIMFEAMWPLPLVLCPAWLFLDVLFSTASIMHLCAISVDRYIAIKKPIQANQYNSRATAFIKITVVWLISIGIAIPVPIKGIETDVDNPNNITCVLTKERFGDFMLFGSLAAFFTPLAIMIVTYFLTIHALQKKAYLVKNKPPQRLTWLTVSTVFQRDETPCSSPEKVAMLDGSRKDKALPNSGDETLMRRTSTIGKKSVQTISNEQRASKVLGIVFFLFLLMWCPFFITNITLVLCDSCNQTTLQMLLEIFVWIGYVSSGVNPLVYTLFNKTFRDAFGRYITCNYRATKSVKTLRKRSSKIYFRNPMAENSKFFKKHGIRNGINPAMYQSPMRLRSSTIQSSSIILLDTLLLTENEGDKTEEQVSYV
Chain of Voltage-dependent L-type calcium channel subunit alpha-1C (P22002 whole entry): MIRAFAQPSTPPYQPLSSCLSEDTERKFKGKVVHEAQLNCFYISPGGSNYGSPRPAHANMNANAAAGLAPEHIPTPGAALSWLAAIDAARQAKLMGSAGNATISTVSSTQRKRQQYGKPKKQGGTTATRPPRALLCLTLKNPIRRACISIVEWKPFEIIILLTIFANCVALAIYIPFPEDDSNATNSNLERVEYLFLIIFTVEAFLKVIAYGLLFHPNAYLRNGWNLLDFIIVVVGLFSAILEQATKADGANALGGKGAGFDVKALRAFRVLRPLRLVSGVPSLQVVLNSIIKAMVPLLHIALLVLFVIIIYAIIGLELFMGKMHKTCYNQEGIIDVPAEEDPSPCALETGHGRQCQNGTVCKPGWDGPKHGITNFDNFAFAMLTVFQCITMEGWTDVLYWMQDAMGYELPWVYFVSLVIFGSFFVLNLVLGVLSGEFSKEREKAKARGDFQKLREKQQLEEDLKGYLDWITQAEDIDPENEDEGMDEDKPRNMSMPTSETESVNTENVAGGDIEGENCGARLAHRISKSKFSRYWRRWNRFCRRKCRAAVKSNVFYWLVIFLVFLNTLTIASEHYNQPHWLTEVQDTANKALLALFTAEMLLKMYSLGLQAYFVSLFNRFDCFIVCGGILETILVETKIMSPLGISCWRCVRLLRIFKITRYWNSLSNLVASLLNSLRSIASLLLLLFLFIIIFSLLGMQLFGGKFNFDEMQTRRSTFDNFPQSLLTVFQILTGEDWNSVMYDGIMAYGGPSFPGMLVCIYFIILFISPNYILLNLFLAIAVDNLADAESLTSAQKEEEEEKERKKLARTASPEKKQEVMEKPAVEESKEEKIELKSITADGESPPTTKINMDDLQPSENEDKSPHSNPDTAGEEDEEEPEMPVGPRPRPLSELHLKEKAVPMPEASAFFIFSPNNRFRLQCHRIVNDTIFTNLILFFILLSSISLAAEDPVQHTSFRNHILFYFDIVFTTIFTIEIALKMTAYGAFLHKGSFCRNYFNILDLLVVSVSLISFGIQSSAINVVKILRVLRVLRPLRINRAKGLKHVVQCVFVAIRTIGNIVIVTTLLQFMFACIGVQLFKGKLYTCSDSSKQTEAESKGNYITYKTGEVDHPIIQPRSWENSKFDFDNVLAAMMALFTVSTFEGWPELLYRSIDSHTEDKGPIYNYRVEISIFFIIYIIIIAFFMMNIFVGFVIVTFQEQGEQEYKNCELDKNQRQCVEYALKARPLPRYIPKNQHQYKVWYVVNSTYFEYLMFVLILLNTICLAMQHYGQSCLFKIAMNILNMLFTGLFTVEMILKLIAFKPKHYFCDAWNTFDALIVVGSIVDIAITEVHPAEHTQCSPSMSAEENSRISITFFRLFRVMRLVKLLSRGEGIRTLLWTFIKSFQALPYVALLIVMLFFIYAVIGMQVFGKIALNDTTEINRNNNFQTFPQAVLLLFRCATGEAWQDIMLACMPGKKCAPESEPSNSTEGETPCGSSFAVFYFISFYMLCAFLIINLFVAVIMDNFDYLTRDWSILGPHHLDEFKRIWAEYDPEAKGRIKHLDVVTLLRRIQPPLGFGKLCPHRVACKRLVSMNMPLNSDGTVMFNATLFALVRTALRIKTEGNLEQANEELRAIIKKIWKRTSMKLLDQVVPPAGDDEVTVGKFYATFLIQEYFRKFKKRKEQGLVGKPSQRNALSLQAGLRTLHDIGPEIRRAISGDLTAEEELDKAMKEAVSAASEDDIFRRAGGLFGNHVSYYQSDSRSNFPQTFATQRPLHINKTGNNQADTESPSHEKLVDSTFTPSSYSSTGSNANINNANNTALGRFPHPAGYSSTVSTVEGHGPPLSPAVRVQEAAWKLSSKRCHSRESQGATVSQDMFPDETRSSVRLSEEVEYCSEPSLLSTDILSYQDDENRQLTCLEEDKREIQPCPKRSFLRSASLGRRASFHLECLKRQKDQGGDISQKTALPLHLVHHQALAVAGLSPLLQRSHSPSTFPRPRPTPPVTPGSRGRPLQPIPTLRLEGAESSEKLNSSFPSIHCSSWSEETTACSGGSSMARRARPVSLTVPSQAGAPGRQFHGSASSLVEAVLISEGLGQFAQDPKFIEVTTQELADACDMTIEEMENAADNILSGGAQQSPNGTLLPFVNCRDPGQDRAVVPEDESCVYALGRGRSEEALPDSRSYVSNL

Structure (SMILES)	AC50 [1]	AC50 [2]	AC50 (Vasopressin V1a receptor)	AC50 (B2 bradykinin receptor)	AC50 [3]	AC50 [4]	AC50 (Cannabinoid receptor 1)	AC50 [5]	AC50 (Histamine H1 receptor)	AC50 [6]	AC50 [7]	AC50 [8]	AC50 [9]	AC50 (Estrogen receptor)
COc1cc(N)cn[n+]1-c1ccccc1 [AMEZINIUM METILSULFATE]	> 30 µM	> 30 µM	> 30 µM	> 30 µM	> 30 µM	> 30 µM	> 30 µM	> 30 µM	> 30 µM	> 30 µM	> 30 µM	> 30 µM	> 30 µM	–
OCCN(CCO)c1nc(N2CCCCC2)c2nc(N(CCO)CCO)nc(N3CCCCC3)c2n1 [DIPYRIDAMOLE]	> 10 µM	–	–	> 30 µM	> 30 µM	> 30 µM	–	1.4 µM	–	> 30 µM	15 µM	> 30 µM	4.5 µM	> 30 µM
CCC1(C)CC(=O)NC1=O (configuration not stated) [ETHOSUXIMIDE]	> 10 µM	> 10 µM	–	> 10 µM	> 10 µM	> 10 µM	–	> 10 µM	–	> 10 µM	> 10 µM	> 10 µM	> 30 µM	> 10 µM
CCCCOC(=O)c1ccc(N)cc1 [BUTAMBEN]	> 30 µM	> 30 µM	–	> 30 µM	> 30 µM	> 30 µM	> 30 µM	> 30 µM	–	> 30 µM	> 30 µM	> 30 µM	26 µM	> 30 µM
Cc1cccc(Nc2ccncc2S(=O)(=O)NC(=O)NC(C)C)c1 [TORSEMIDE]	> 10 µM	> 10 µM	> 30 µM	> 30 µM	> 10 µM	> 10 µM	–	> 10 µM	–	> 10 µM	> 10 µM	> 10 µM	> 30 µM	> 10 µM
CCN(C(C)=O)c1cccc(-c2ccnc3c(C#N)cnn23)c1 [ZALEPLON]	> 10 µM	> 30 µM	–	> 30 µM	> 10 µM	> 10 µM	> 30 µM	–	–	> 10 µM	> 10 µM	> 10 µM	> 30 µM	> 30 µM
Nc1cc(N2CCCCC2)nc(N)[n+]1[O-] [MINOXIDIL]	> 10 µM	> 30 µM	–	> 30 µM	> 10 µM	> 10 µM	–	> 10 µM	–	> 30 µM	> 10 µM	> 10 µM	> 30 µM	> 30 µM
CC1Cc2ccccc2N1NC(=O)c1ccc(Cl)c(S(N)(=O)=O)c1 (configuration not stated) [INDAPAMIDE]	> 10 µM	> 10 µM	–	> 30 µM	> 10 µM	> 10 µM	> 30 µM	> 10 µM	–	> 30 µM	> 10 µM	> 10 µM	> 10 µM	> 30 µM
